Source: patent US9382288B2, “Derivatives of steroid benzylamines, having an antiparasitic antibacterial, antimycotic and/or antiviral action” (Justus-Liebig-Universitat Giessen, priority 2010, dated 2016)
Converted amounts (≈) assume the structure as drawn. “And” between values parts separate entries of the source, which are not always exact repeats. Equal values may be shown once. “Also recorded” adds a separate entry of the source. Read-outs that look alike come from different tables or passages of the source.

Tests used:
[1] = system: P. falciparum strain 3D7-Netherlands; assay: In vitro IC50, 3H-hypoxanthine incorporation, P. falciparum 3D7; format: cell-based, Plasmodium falciparum; conditions: Plasmodium falciparum
[2] = system: Plasmodium falciparum strain K1; assay: In vitro IC50, 3H-hypoxanthine incorporation, P. falciparum K1; format: cell-based; conditions: chloroquine-resistant Plasmodium falciparum strain K1
L929 = assay: Antiproliferative activity L929; format: cell-based; conditions: Mus musculus, read-out: IC50 [μg/ml] Antiproliferative activity L929
K562 = assay: Antiproliferative activity K562; format: cell-based; conditions: Homo sapiens, read-out: IC50 [μg/ml] Antiproliferative activity K562
[3] = system: Plasmodium berghei GFP MRA-865; assay: Plasmodium berghei infection in the mouse model (in vivo); conditions: for life span in words: all dosages and routes of administration tested; for Activity (%): parasitemia day 4 vs untreated controls
Cytotoxicity HeLa = conditions: human, HeLa cells
adult S. mansoni = assay: In vitro treatment of adult S. mansoni couples, visual evaluation by microscope; set-up: species or system Schistosoma mansoni
Procedure: Compounds 2, 18 and 41 were tested by Prof. Dr. Grevelding, Parasitology, Veterinary Medicine, University of Gieβen, also in the parasite Schistosoma mansoni. […] Each test was performed with 3 groups of 10 worms each. Remarkable was that different effects on the worms with respect to morphological alterations could be observed. […] Exemplarily shown in FIGS. 1 and 2 is an image of a control assay and an image of trematodes after 48 hours of incubation with compound 18.
Each one of the three groups (one group per well) comprised 10 pairs of adult S. mansoni were incubated with the substance to be tested for 24 h. As control served three groups which were incubated with medium (M199) and three groups which were incubated with medium and DMSO as solvent of the test substances. Evaluation was done visually using a microscope.
In a second experimental setting, again three groups each (one group per well) with 8 pairs of adult S. mansoni each were incubated with the compound to be tested, however for 48 h in this experiment. As control served three groups which were either incubated with medium (M199) or medium and DMSO as solvent of the test substances. Evaluation was done visually using a microscope.

[4] = system: Trypanosoma brucei brucei S427; assay: In vitro efficacy against Trypanosoma brucei; format: cell-based
Procedure: Compounds 18 and 41 were assessed at the London School of Hygiene and Tropical Medicine in vitro with respect to their efficacy against the parasite Trypanosoma brucei brucei […].

[5] = P. falciparum strain 3D7, read-out: IC50 [nM] P.f.(3D7)
[6] = 3D7, read-out: IC50 [ng/ml] P.f.(3D7)
[7] = 24 hours, 100 μM, 3 groups of 10 pairs
[8] = 48 hours, 20 μM, 3 groups of 8 pairs
[9] = 48 hours, 100 μM, 3 groups of 8 pairs

SMILES | IC50 [1, 5] | IC50 (L929) | IC50 (K562) | life span in words [3] | MSD (days) ([3]; oral 3 × 100 mg/kg) | Activity (%) ([3]; oral 3 × 100 mg/kg) | MSD (days) ([3]; sc 3 × 10 mg/kg) | Activity (%) ([3]; sc 3 × 10 mg/kg) | MSD (days) ([3]; sc 3 × 30 mg/kg) | IC50 [1, 6] | morphological alterations of the worms (adult S. mansoni) | egg production (adult S. mansoni; 24 hours, 100 μM) | motility / vitality (adult S. mansoni; 24 hours, 100 μM) | couples detectable (adult S. mansoni; [7]) | egg production (adult S. mansoni; 48 hours, 20 μM) | motility / vitality (adult S. mansoni; 48 hours, 20 μM) | couples detectable (adult S. mansoni; [8]) | egg production (adult S. mansoni; 48 hours, 100 μM) | motility / vitality (adult S. mansoni; 48 hours, 100 μM) | couples detectable (adult S. mansoni; [9]) | also measured
COc1ccc2c(c1)CCC1C2CC[C@@]2(C)C1CC[C@@H]2NCc1ccccc1O (stereo partly drawn) [Compound 1, 17β-(2-Hydroxyphenyl-methylamino)-3-methoxy-estra-1,3,5(10)-triene] | 50 nM | 2.2 µg/mL (≈ 5.62 µM) | 0.8 µg/mL (≈ 2.04 µM) | considerably extended the life span | 16.3 (n = 3) days | 99% | 10.2 (n = 3) days | 47% | 15 (n = 3) days |  |  |  |  |  |  |  |  |  |  |  | IC50 ([1]; P. falciparum strain 3D7, read-out: IC50 [ng/ml] P.f.(3D7)): 19.8 ng/mL; IC50 [2]: 73 nM; Activity (%) ([3]; sc 3 × 30 mg/kg): 94%; IC50 (Cytotoxicity HeLa): 11 µM and 4.3 µg/mL
COc1ccc2c(c1)CCC1C2CC[C@@]2(C)C1CC[C@H]2NCc1ccccc1O (stereo partly drawn) [Compound 2, 17α-(2-Hydroxyphenyl-methylamino)-3-methoxy-estra-1,3,5(10)-triene] | 7.4 nM | 1.9 µg/mL (≈ 4.85 µM) | 0.5 µg/mL (≈ 1.28 µM) | considerably extended the life span | 15.33 (n = 3) days | 99.7% | 7 (n = 3) days | 17.7% | 14 (n = 3) days | 2.9 ng/mL | ventrally curved in a cork-screw like manner | Almost no eggs were detectable | Trematodes moved only slightly and with twitching movements | in two of the groups each one couple was detected | No eggs were detectable | The trematodes barely moved | no couples could be observed in any of the groups | No eggs were detectable | All trematodes were dead | no couples could be observed in any of the groups | MSD (days) ([3]; oral 3 × 10 mg/kg): 8.7 (n = 3) days; Activity (%) ([3]; oral 3 × 10 mg/kg): 46.8%; MSD (days) ([3]; oral 3 × 30 mg/kg): 13 (n = 3) days; Activity (%) ([3]; oral 3 × 30 mg/kg): 99.4%; Activity (%) ([3]; sc 3 × 30 mg/kg): 61.8%; IC50 (Cytotoxicity HeLa): 3.1 µg/mL (≈ 7.92 µM)
COc1ccc2c(c1)CCC1C2CC[C@@]2(C)C1CC[C@@H]2NCc1cc2ccccc2cc1O (stereo partly drawn) [Compound 18, 17β-[(3-Hydroxynaphth-2-yl)-methylamino]-3-methoxy-estra-1,3,5(10)-triene] | 7 nM |  |  |  |  |  |  |  |  | 3.1 ng/mL | ventral bending | Almost no eggs were detectable | The trematodes rarely showed slightly twitching movements | no couples could be detected | No eggs were detectable | all worms were dead | no couples could be observed in any of the groups | No eggs were detectable | all worms were dead | no couples could be observed in any of the groups | egg production (adult S. mansoni; 24 hours, 20 μM): Almost no eggs were detectable; motility / vitality (adult S. mansoni; 24 hours, 20 μM): Males barely moved and showed only twitching; couples detectable (adult S. mansoni; 24 hours, 20 μM, 3 groups of 10 pairs): no couples could be detected; IC50 [4]: 930 nM
COc1ccc2c(c1)CCC1C2CC[C@@]2(C)C1CC[C@H]2NCc1cc2ccccc2cc1O (stereo partly drawn) [Compound 41, 17α-[(3-Hydroxy-naphth-2-yl)-methylamino]-3-methoxy-estra-1,3,5(10)-triene] | 4.4 nM |  |  |  |  |  |  |  |  | 1.9 ng/mL | dorsal bending | Almost no eggs could be detected | Males showed almost no motility | only in one of the groups a couple was detectable | No eggs were produced | Single trematodes showed slightly twitching movements, while the rest was non-motile | no couples could be observed in any of the groups | No eggs were detectable | Some of the worms were already dead, while others were dying | no couples could be observed in any of the groups | egg production (adult S. mansoni; 24 hours, 20 μM): Almost no eggs could be detected; also recorded: Almost no eggs were detectable; motility / vitality (adult S. mansoni; 24 hours, 20 μM): Males barely moved and showed only twitching; also recorded: Trematodes moved only slightly and with twitching movements; IC50 [4]: 3580 nM
